Values after ≈ are worked out from the molar mass of the structure shown.

From ChEMBL document CHEMBL3588753, “Recent progress in the drug development of coumarin derivatives as potent antituberculosis agents” (2015) come the findings set out here.

The subject of this experiment is Mycobacterium tuberculosis variant bovis. Put plainly: Antimycobacterial activity against Mycobacterium bovis. The format is functional.
`COC(=O)C1C(=O)Oc2ccc(Br)cc2C1C(=O)NC1CCCCC1` (stereo not drawn) registered an MIC of 15.6 µg/mL (≈ 38 µM).
The compound `CC(C)COC(=O)C1C(=O)Oc2ccccc2C1C(=O)NC1CCCCC1` (stereo not drawn) gave an MIC of 15.6 µg/mL (≈ 41.8 µM).
Turning to `O=C(OCc1ccc(F)cc1)C1C(=O)Oc2ccc(Br)cc2C1C(=O)NC1CCCCC1` (stereo not drawn), 15.6 µg/mL (≈ 30.9 µM) was the least that counted as inhibitory (MIC).

Broadly, the MIC is the lowest concentration that inhibits growth of the organism. High values mean weaker potency, low ones greater potency.
